{"source": "patent US11767504B2", "about": "“Albumin compositions and methods of producing and using same” (Albcura Corporation, priority 2020, dated 2023)", "tested_on": "Insulin", "experiment": "Assay of insulin aggregation stabilization by various albumin (absorbance at 360 nm)", "format": "biochemical", "conditions": "1−(A360 with albumin)/(A360 of (−) group), at time point where control A360 near 0.35; albumin samples 2 mg/mL mixed 1:1 with 0.7 mg/mL insulin working solution, 37° C.", "protocol": "Various albumin samples were diluted to 2 mg/mL in purified water. An assay working solution was prepared containing 60 mM of HEPES (pH=7.4), 300 mM of NaCl, 30 mM of 2-mercaptoethanol, and 0.7 mg/mL of Insulin. In a 96-well plate, 100 μL of the assay working solution was mixed with 100 μL of each albumin sample. The plate was incubated at 37° C. inside a plate reader, and the absorbance at 360 nm was measured every 30 seconds for 60 minutes.\nThe absorbance data at 360 nm (A360) of each group was picked at the time point where the A360 of the control group (without albumin, labeled as (−)) was near 0.35. […] Stabilizing Efficiency %=1−(A360 of experimental group with albumin)/(A360 of (−) group)"}
{"substance": "fatty acid free BSA: Fatty acid-free BSA from Sigma Aldrich (A8806)", "values": [{"measurement": "Stabilizing Efficiency", "result": 53, "unit": "%"}]}
